The values that follow come from ChEMBL document CHEMBL4342462, “Discovery and Characterization of 2,5-Substituted Benzoic Acid Dual Inhibitors of the Anti-apoptotic Mcl-1 and Bfl-1 Proteins” (J Med Chem, 2020).

pKd, pKi: −log10 of the molar value. Calls of active or inactive are those of the source. No cut-off for these calls is given here. Where only a bound is given, the exact number is not on record here.

Assay [1] addresses T1, Bcl-2-related protein A1 (Homo sapiens, UniProt Q16548).
T1 sequence (Q16548 whole entry): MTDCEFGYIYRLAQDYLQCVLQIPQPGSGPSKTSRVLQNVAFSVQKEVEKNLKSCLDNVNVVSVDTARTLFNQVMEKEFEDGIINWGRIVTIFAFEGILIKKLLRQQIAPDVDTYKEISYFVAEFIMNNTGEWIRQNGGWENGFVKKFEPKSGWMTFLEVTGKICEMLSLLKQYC

The target of assay [2] is T2, Induced myeloid leukemia cell differentiation protein Mcl-1 (Homo sapiens, UniProt Q07820).
Description: Inhibition of N-terminal His6-tagged human Mcl1 expressed in Escherichia coli Rosetta2 DE3 by fluorescent labeled Flu-Bid peptide based fluorescence polarization assay
Assay [3] concerns the target T3, Bcl-2-like protein 1 (Homo sapiens, UniProt Q07817).
Assay [4] concerns the target T4, Apoptosis regulator Bcl-2 (Homo sapiens, UniProt P10415).
Assay [5] concerns the target T1, Bcl-2-related protein A1. The source holds these as a separate data set.
Assay [6] has as its target T3, Bcl-2-like protein 1. The experiment in a line: Inhibition of Bcl-xL (unknown origin) expressed in Eu-Myc cells assessed as induction of cell death at 75 to 100 uM incubated for 24 hrs by violet LIVE/DEAD fixable dead cell staining based flow cytometry. For orientation: Flow cytometry measures light scatter and fluorescence of single cells or particles in a stream.

Assay [7] deals with T5, Bcl-2-related protein A1 (Homo sapiens) (UniProt Q16548).
T5 sequence (whole entry): T1 sequence (Q16548 whole entry)

Assay [8] deals with T4, Apoptosis regulator Bcl-2. Description: Inhibition of Bcl2 (unknown origin) expressed in Eu-Myc cells assessed as induction of cell death at 75 to 100 uM incubated for 24 hrs by violet LIVE/DEAD fixable dead cell staining based flow cytometry.
For assay [9], the target named is T2, Induced myeloid leukemia cell differentiation protein Mcl-1. This is another data set of the same source.
Description: Binding affinity to immobilized biotin-labeled and N-terminal His6-tagged human Mcl-1 expressed in Escherichia coli Rosetta2 DE3 by biolayer interferometry

T3 sequence (Q07817 whole entry): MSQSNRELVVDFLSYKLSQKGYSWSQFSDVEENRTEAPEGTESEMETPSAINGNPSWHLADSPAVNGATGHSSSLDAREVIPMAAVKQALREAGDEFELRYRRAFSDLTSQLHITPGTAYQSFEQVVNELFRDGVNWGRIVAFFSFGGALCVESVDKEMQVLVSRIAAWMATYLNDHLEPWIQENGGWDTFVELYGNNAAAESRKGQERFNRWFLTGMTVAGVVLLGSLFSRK
T4 sequence (P10415 whole entry): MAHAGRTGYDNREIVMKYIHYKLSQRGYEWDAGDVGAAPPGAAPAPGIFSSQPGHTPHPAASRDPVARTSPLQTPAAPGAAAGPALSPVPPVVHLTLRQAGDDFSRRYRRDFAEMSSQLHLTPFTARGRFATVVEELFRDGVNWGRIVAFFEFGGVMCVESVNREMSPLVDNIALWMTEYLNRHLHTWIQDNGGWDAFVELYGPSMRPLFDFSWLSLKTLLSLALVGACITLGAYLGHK
T2 sequence (Q07820 whole entry): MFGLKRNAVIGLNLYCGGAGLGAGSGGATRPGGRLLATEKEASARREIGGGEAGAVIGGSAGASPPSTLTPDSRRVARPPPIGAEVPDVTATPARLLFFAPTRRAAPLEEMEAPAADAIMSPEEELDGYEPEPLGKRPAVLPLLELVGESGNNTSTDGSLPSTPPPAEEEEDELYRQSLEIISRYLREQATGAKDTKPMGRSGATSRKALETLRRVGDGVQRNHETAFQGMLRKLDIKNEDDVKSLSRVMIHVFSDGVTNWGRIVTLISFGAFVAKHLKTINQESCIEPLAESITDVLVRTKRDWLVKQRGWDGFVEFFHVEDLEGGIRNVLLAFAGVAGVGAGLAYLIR

As to `O=C(O)c1cc(SCCc2ccccc2)ccc1NS(=O)(=O)N1CCC(c2ccccc2)CC1`, the pKi (in general, the Ki on a negative log10 scale, so that one unit is a factor of ten) at Bcl-2-related protein A1 [1] was 6.41; in assay [2] it was 6.48.
Turning to `O=C(O)c1cc(SCCc2ccccc2)ccc1NS(=O)(=O)c1ccc(-c2ccccc2)nc1`, the negative logarithm of the Ki (pKi) at Bcl-2-related protein A1 [1] is 6.55; in [2], 6.70.
`COc1cccc(CCSc2ccc(NS(=O)(=O)N3CCN(c4ccc(C(C)(C)C)cc4)CC3)c(C(=O)O)c2)c1`: the pKi at Bcl-2-like protein 1 [3] is 5.17; at Bcl-2-related protein A1 [1] it was 7.00; in assay [2] it was 7.13; in assay [4] it was 5.92.
Consider `O=C(O)c1cc(SCCc2ccccc2)ccc1NS(=O)(=O)c1ccc(-c2ccccc2)cc1`, for which the pKi at Bcl-2-related protein A1 [1] was 6.82; in [2], 7.05.
For `O=C(Cc1ccccc1)Nc1ccc(NS(=O)(=O)c2ccccc2)c(C(=O)O)c1`, the pKi on Bcl-2-related protein A1 [1] was under 4.15; in assay [2], 4.15.
For `O=C(O)c1cc(SCCc2ccccc2)ccc1NS(=O)(=O)c1ccccc1`, the pKi is under 4.60 at Bcl-2-like protein 1 [3], 5.80 on Bcl-2-related protein A1 [1], 5.82 in [2] and under 4.60 in [4].
Take `O=C(Nc1ccc(SCCc2ccccc2)cc1C(=O)O)c1ccccc1`: the values for the pKi (on Bcl-2-related protein A1 [1]; in [2]) were 5.34 and 5.57, respectively.
Taken in the same sequence, the figures for `O=C(O)c1cc(SCCc2ccccc2)ccc1NS(=O)(=O)c1ccc(Br)cc1` were 6.09 and 6.09.
Regarding `CC(C)(C)c1ccc(N2CCN(S(=O)(=O)Nc3ccc(SCCC(=O)Nc4ccccc4)cc3C(=O)O)CC2)cc1`, the results for the pKi (at Bcl-2-like protein 1 [3]; at Bcl-2-related protein A1 [1]; in assay [2]) were under 4.60, 5.96 and 6.02, respectively.
For the compound `O=C(O)c1cc(SCCc2ccccc2)ccc1NS(=O)(=O)N1CCN(Cc2ccccc2)CC1`, the pKi on Bcl-2-related protein A1 [1] is 6.00; in [2] it was 6.08.
Regarding `O=C(CCCSc1ccc(NS(=O)(=O)c2ccccc2)c(C(=O)O)c1)Nc1ccccc1`, the pKi at Bcl-2-related protein A1 [1] is under 4.15; in assay [2], 4.48.
Regarding `O=C(O)c1cc(SCc2ccccc2)ccc1NS(=O)(=O)c1ccccc1`, the figures for the negative logarithm of the Ki (pKi) (on Bcl-2-related protein A1 [1]; in [2]) were 5.52 and 5.59, respectively.
Taken in the same sequence, the figures for `O=C(O)c1cc(OCCc2ccccc2)ccc1NS(=O)(=O)c1ccccc1` were 4.97 and 5.21.
In the same order, the values of `O=C(O)c1ccccc1NS(=O)(=O)c1ccccc1` are under 4.00 and 4.32.
Consider `O=C(O)c1cc(SCCc2ccccc2)ccc1NS(=O)(=O)CCc1ccccc1`, for which the pKi (on Bcl-2-related protein A1 [1]; in [2]) was 5.77 each time.
Take `O=C(CCc1ccccc1)Nc1ccc(NS(=O)(=O)c2ccccc2)c(C(=O)O)c1`: the pKi was 4.21 on Bcl-2-related protein A1 [1] and 4.72 in [2].
In the same order, the values of `CC(C)(C)c1ccc(N2CCN(S(=O)(=O)Nc3ccc(SCCc4cccc(O)c4)cc3C(=O)O)CC2)cc1` are 6.60 and 6.54.
On to `O=C(O)c1cc(SCCc2ccccc2)ccc1NS(=O)(=O)N1CCN(c2ccccc2)CC1`, for which the negative-log Ki (pKi) on Bcl-2-like protein 1 [3] was 5.18; on Bcl-2-related protein A1 [1] it was 6.12; in assay [2] it was 6.24; in [4] it was 4.93.
On to `O=C(CCSc1ccc(NS(=O)(=O)c2ccccc2)c(C(=O)O)c1)Nc1ccccc1`, for which the pKi at Bcl-2-related protein A1 [1] is 4.83; in assay [2], 4.88.
Taken in the same sequence, the figures for `O=C(O)c1cc(NCCc2ccccc2)ccc1NS(=O)(=O)c1ccccc1` were 5.42 and 5.33.
As for `CC(C)(C)c1ccc(N2CCN(S(=O)(=O)Nc3ccc(SCCc4ccccc4)cc3C(=O)O)CC2)cc1`, the pKd (usually the Kd on a negative log10 scale, so that one unit is a factor of ten) on Bcl-2-related protein A1 [5] was 6.04; in assay [9], 6.31. Besides, the inhibition entry (at Bcl-2-like protein 1 [6]; in [8]) was “Active” throughout. The result in [7] was Active. Moreover, the pKi was 5.46 on Bcl-2-like protein 1 [3], 7.08 on Bcl-2-related protein A1 [1], 7.14 in [2] and 5.92 in assay [4].
Take `O=C(O)c1cc(SCCc2ccccc2)ccc1NS(=O)(=O)c1cccs1`: the pKi on Bcl-2-related protein A1 [1] is 5.47; in [2], 5.70.
For the compound `Nc1ccc(SCCc2ccccc2)cc1C(=O)O`, the pKi on Bcl-2-related protein A1 [1] is 5.43; in assay [2], 5.47.
With `O=C(O)c1cc(SCCc2ccccc2)ccc1NS(=O)(=O)c1ccc(C2CCCCC2)cc1`, the pKi was 6.77 on Bcl-2-related protein A1 [1] and 7.06 in [2].
